Results from US20100111943A1, “COMPOSITIONS AND METHODS FOR INHIBITING CANCER METASTASIS” (Medical College of Georgia Research Institute, Inc, priority 2007, published 2010).
Entries after “also recorded” stand apart in the source; their conditions may differ.

Assays:
F-hsp90α = assay: Acetylation of F-hsp90α in HEK293 cells (immunoprecipitation, anti-AcK immunoblot); format: cell-based; details: HEK293 cells with ectopic expression of FLAG (F)-hsp90α
Experimental: Following culture in the plates for 24 hours, cells were transfected by Lipofectamine Plus following the protocol provided by Invitrogen (Carlsbad, Calif.). Transfected cells were cultured in full-medium containing drugs dissolved in DMSO or vehicle for 24 hours. Cellular extracts were prepared by directly adding lysis buffer (25 mM Tris-phosphate, pH 7.8, 2 mM DTT, 2 mM 1,2-diaminocyclohexane-N′,N′,N′,N′-tetraacetic acid, 10% glycerol, 0.2% Triton X-100) to the cells on ice. For immuno-precipitations (IP), 2×10^6 cells in 100 mm dishes were transfected and/or treated as described above. Cellular extracts were prepared and immunoprecipitation performed as described 24. For immunoblotting, cellular extracts or immunoprecipitates were separated on SDS-PAGE, transferred to a nitrocellulose membrane, probed with antibodies, and visualized with enhanced chemiluminescence, as described (Chen, Z., et al., Mol. Pharmacol., 69:1527-33 (2006)).
Hsp90 is acetylated both in vitro and in vivo. […] To determine whether p300 acts as the HAT for hsp90α, following incubation with p300 and acetyl-CoA, in vitro translated hsp90α was analyzed for its acetylation status by Western analysis with anti-AcK antibody. p300 was necessary for the acetylation of hsp90α in the in vitro assay. […] In HEK293 cells, it was determined that p300 can be coimmunoprecipitated with hsp90α. […]

K/R mutants of hsp90α = assay: B-GA binding assay, HEK293 lysates expressing F-hsp90 K/R substitutions
Experimental: (§1) Biotinylated (B)-GA binding to hsp90 was assessed as described previously 26. Briefly, cell-lysates were incubated with or without 17-AAG (Developmental Therapeutics Branch of CTEP/NCI/NIH) for 1 hour at 4° C., and then incubated with B-GA to displace 17-AAG from hsp90 for another 1 h. GM-bound hsp90 was captured by biotin-GA linked to streptavidin Mutein Matrix (Roche Diagnostics, Indianapolis, Ind.) for 1 h at 4° C. The unbound supernatant was removed and the beads were washed three times with lysis buffer. The precipitates were immunoblotted for hsp90.
Following treatment with either vehicle or 100 nM of LBH, cell lysates from HEK293 cells expressing F-hsp90 or K/R substitutions were incubated with vehicle or 50 nM of 17-AAG followed by incubation with B-GA and streptavidin coated agarose beads. Precipitates from streptavidin coated beads were analyzed with anti-F antibody.

hsp90α [1] = target: T1, hsp90α (Homo sapiens, UniProt P07900); assay: Biotinylated-geldanamycin (B-GA) binding assay, MDA-MB-468 cell lysates
T1 construct: acetylation of the endogenous hsp90α due to treatment with LBH589; endogenous in cells; host or cells: MDA-MB-468
Experimental: as §1
Cell lysates containing hsp90α and ATP-sepharose were also incubated with B-GA followed by streptavidin coated agarose beads and eluted proteins were analyzed with anti-F antibody. […] MB-468 cells cultured in DMEM medium containing 10% FBS were treated with the indicated concentration of LBH589 for 16 hours. Following this, cell lysates were incubated with B-GA followed by streptavidin coated agarose beads and eluted proteins were analyzed with anti-hsp90α antibody. Acetylation and expression level of endogenous hsp90 were detected with anti-AcK and anti-hsp90 antibody, respectively.
MB-468 cells ectopically expressing F-hsp90α were treated with 100 nM of LBH589 for 16 hours. Following this, equal amount of cell lysates were incubated with 0, 5, 10 or 50 nM of 17-AAG for 30 min at 4° C., followed by incubation with B-GA and streptavidin-coated agarose beads. Precipitates from streptavidin coated beads were analyzed with anti-F antibody.

acetylated hsp90α = assay: Confocal microscopy of membrane-associated acetylated hsp90α, MB-231 cells; format: cell-based; details: serum-starved MB-231 cells, 40 nM LBH589 for 16 hours, anti-Ac-K69 staining
Experimental: MDA-MB-231 cells were cultured in a chamber slide in RPMI medium with 10% FBS or under serum-free conditions with or without 40 nM LBH589 for 16 hours and stained with anti-acetyl (Ac)-[…] antibody. Briefly, after 16 hours incubation, cells were washed with PBS and fixed with 4% paraformaldehyde for 10 minutes. Following this, the slides were blocked with 3% BSA for 30 minutes and incubated with primary antibody at a dilution of 1:100 in blocking buffer for 2 hours. Following three washes with PBS the slides were incubated in Alexa Fluor 488 anti-rabbit secondary antibody (Molecular probes, Invitrogen) for one hour at 1:3000 dilution. After three washes with PBS, the cells were counterstained with DAPI using Vectashield mountant with DAPI and imaged using Zeiss LSM510 confocal microscope. […] Serum-starved MB-231 cells were treated with 40 nM LBH589 for 16 hours, followed by staining with anti-AcK69 hsp90α antibody and confocal microscopy. Cells cultured in RPMI with 10% FBS and cells stained with rabbit IgG served as controls.

hsp90α [2] = assay: Acetylation of hsp90α in MB-231 cells (immunoblot with anti-AcK69-hsp90α antibody); format: cell-based; details: MB-231 cells treated with LBH589
Source text: Next, a polyclonal antibody was generated against the acetylated K69-containing peptide of hsp90α (anti-Ac-K69). The specificity of the antibody was confirmed by determining its ability to detect the increase in the acetylation of the ectopically expressed […] hsp90α following treatment with the HDAC inhibitor LBH589. MB-231 cells were transfected with F-hsp90α followed by the treatment with LBH589. Immunoprecipitates of F-hsp90α with anti-M2 conjugated beads were immunoblotted with anti-K69-hsp90α antibody for the acetylation status and anti-F antibody for F-hsp90α expression. Cells transfected with empty vector followed the treatment with LBH589 served as control for specificity. Acetylation of endogenous hsp90αinduced by LBH589 was also detected with anti-AcK69-hsp90α antibody. Immunoprecipitates of endogenous hsp90α with anti-hsp90α antibody from cell lysates of MB-231 cells treated with or without LBH589 were immunoblotted with either anti-AcK69-hsp90α or anti-hsp90α (rabbit) antibody. IgG served as the control for specificity of the immunoprecipitates.

[3] = system: acetylated hsp90α with MMP-2; assay: Extracellular co-immunoprecipitation of acetylated hsp90α with MMP-2, MDA-MB-231 supernatant; format: cell-based; details: supernatant of serum starved LBH treated MDA-MB-231 cells
Experimental: Supernatant of serum starved LBH treated MDA-MB-231 cells was concentrated and immunoprecipitates with anti-hsp90α antibody were immunoblotted with anti-AcK, anti-MMP-2 or hsp90α antibody. […] Whether increased extracellular location of K69Q, K100Q or K558Q mutant promotes in vitro invasiveness of breast cancer cells was determined. For this, stable transfectants of MB-468 cells expressing the wild-type hsp90α we created, or the K/Q or K/R mutants of hsp90α at the residues K69, K100 and K558, and their in vitro invasiveness in the matrigel-based assay was evaluated.

hsp90α [4] = assay: Export and extracellular localization of hsp90α from serum-starved T47D cells (immunoblot of medium); format: cell-based
Source text: Previous reports have shown that the inducible isoform hsp90α, but not hsp90β, can be secreted and found on the surface of cancer cells, although it lacks the classical signal sequence (Eustace, B. K., et al., Nat Cell Biol., 6:507-14 (2004); Eustace, B. et al., Cell Cycle., 3:1098-1100 (2004)). […] Concentrated extra-cellular medium or cell lysates from T47D cells, which were either serum-starved or cultured in 10% FBS, were immunoblotted with anti-hsp90α antibody. β-actin served as a loading control. Under starvation, both endogenous and exogenous hsp90α are secreted from T47D cells in the acetylated form. Extra-cellular hsp90α was immunoprecipitated with anti-AcK antibody and immunoblotted with either anti-hsp90α or M2 antibody.
To further verify this, the export and extracellular location of acetylation mimetic (K/Q) or acetylation-resistant (K/R) mutants transfected into T47D cells that were cultured under serum-free condition were determined. In serum-starved T47D cells, K/R substitutions at K69, K100 and K558 decrease, while K/Q substitutions increase the level of extracellular hsp90α. Supernatants of serum starved T47D cells transfected with the F-tagged hsp90α mutant constructs K69Q, K100Q, K292Q, K327Q, K478Q, K546Q, and K558Q were concentrated and immunoblotted with anti-F antibody. Coomassie-stained non-specific proteins served as the loading control. […]

MB-231 cells = assay: In vitro matrigel invasion assay, MB-231 cells; format: cell-based; details: 10, 20, 40 nM LBH589 (FIG. 1A)
Experimental: In vitro invasion assay were performed, as previously described 12, 27 by using the Cultrex® Cell Invasion Assay kit (RandD Systems, Minneapolis, Minn.). In brief, serumstarved cells in 50 μL serum-free medium with or without antibody or IgG were placed in the top chamber and allowed to invade for 24 hours. The lower chambers (assay chamber) were filled with 10% FBS medium. After incubation, migrated cells on the […] chamber of the membrane were dissociated with cell dissociation solution containing Calcein AM at 37° C. for 1 hour and read the bottom plate at 485 nm excitation and 520 nm emission.
The effect of anti-hsp90α with anti-Ac-K69 hsp90α antibody on the in vitro invasiveness of MB-231 breast cancer cells was compared. Serum-starved MB-231 cells treated with 20 μg/mL anti-hsp90α or anti-AcK69 hsp90α antibody were used for determining in vitro matrigel invasion (see Example 4 for protocol). Untreated cells, or cells treated with IgG were used as controls.

O=C(CCCCCCC(=O)Nc1ccccc1)NO [vorinostat]
acetylation of F-hsp90α (F-hsp90α): hyper-acetylation of F-hsp90α

17-allylamino-17-demethoxygeldanamycin [17-AAG]
17-AAG binding to K/R mutants (displacement of B-GA) (K/R mutants of hsp90α; HEK293 lysates after 100 nM LBH, 50 nM 17-AAG): decreased binding of K/R mutants to 17-AAG
displacement of B-GA binding to hsp90 (hsp90α [1]; lysates incubated with 0, 5, 10 or 50 nM 17-AAG for 30 min at 4° C., cells exposed or unexposed to LBH589): B-GA binding to hsp90 was reduced by 17-AAG treatment

Cc1[nH]c2ccccc2c1CCNCc1ccc(/C=C/C(=O)NO)cc1 [LBH589]
B-GA binding of K/R mutants of hsp90α (K/R mutants of hsp90α; HEK293 cells, 100 nM LBH): increased binding to B-GA
levels of membrane associated acetylated hsp90α (acetylated hsp90α): increased levels of the membrane associated acetylated hsp90α
acetylation of F-hsp90α (F-hsp90α): hyper-acetylation of F-hsp90α
acetylated hsp90α detected by anti-Ac-K69 hsp90α antibody (hsp90α [2]): increase in the acetylated hsp90α
B-GA binding of hsp90α (hsp90α [1]; MDA-MB-468 cells treated with LBH589 for 16 hours): increase in B-GA binding of hsp90α
17-AAG binding to acetylated endogenous hsp90 (hsp90α [1]; MDA-MB-468 cells, 100 nM LBH589 for 16 hours, then lysates with 0, 5, 10 or 50 nM 17-AAG): promoted 17-AAG binding to the acetylated endogenous hsp90
extra-cellular binding of acetylated hsp90α with MMP-2 [3]: increased extra-cellular binding of acetylated hsp90α with MMP-2
export and extracellular location of K/R mutants of hsp90α (hsp90α [4]; serum-starved T47D cells transfected with K/R mutants, cotreatment with LBH589): increased the export and extracellular location of K/R mutants of hsp90α to a variable extent; also recorded: promote extracellular localization of K/R mutants of hsp90α
export and extracellular localization of hyper-acetylated hsp90α (hsp90α [4]; serum-starved T47D cells, 0, 25, 50 or 100 nM LBH589): promoted and increased the export and extracellular localization of hyper-acetylated hsp90α; also recorded: occurs in a dose dependent manner
matrigel invasion by MB-231 cells (MB-231 cells): dose dependently increased matrigel invasion
